The values that follow come from US11957139B2, “Compositions for improving nitrogen utilization in a ruminant” (Evonik Operations GmbH, priority 2016, dated 2024).

The subject of data set [1] is Holstein heifers. The data set can be described thus: Somatic growth after ruminal versus abomasal infusion (Example 3). It is filed as in vivo. Particulars: infused in the abomasum compared to equivalent amount in the rumen; at least 2 months. The text has this:
Heifers are individually weighed on the first day of each experimental period (i.e. day 1) and on the last day of the experimental period (i.e., after at least 2 months, such as after 6 months). […] An increase in body weight indicates an increase in somatic growth while a decrease or no change in body weight indicates a decrease in somatic growth or unchanged somatic growth, respectively.

In data set [2] the test system is Holstein heifers. On the procedure:
The objective of this experiment was to evaluate the effects of ruminal versus abomasal infusion of ammonia (an equivalent source of NPN) on food intake in ruminants.
Feed intake was calculated according to the following formula: Feed intake=[amount of feed provided at the beginning of the day]−[amount of feed left intact (i.e. not eaten) after a period of 24 hours]). Results

For another data set, the system named is lactating heifers. The data set can be described thus: Milk production after ruminal versus abomasal infusion (Example 4). It is filed as in vivo, Holstein heifers. Particulars: infused in the abomasum compared to equivalent amount in the rumen. The text has this:
The experimental procedure and animal treatments is the same as described above for example 1, except that the Holstein heifers were lactating heifers.

Data set [3] relates to Holstein heifers. Particulars: 150 g urea equivalent infused into rumen; 0-12 h post-infusion; FIG. 18.
Excerpt: Three non-lactating, non-pregnant Holstein heifers were used for the experiment. The Holstein heifers were on average 48±0.5 months of age and weighed on average 800 kg. Each heifer was rumen-cannulated. The experimental design was a 3×3 Latin Square, involving 3 treatments, 3 periods and 3 animals. Experimental unit is the combination animal×period, totalizing 9 experimental units.
The experiment consisted of 3 treatment regimens (i.e. treatment groups 1, 2, and 3). Specifically, each treatment group differed with respect to the NPN composition they received.
Heifers were housed in a tie-stall barn with individual water and feed troughs, rubber mattresses, and wood shaving bedding. The tie-stall was cleaned and the wood shaving replaced daily. Heifers were fed low quality hay ad libitum. Each experimental period last 4 days in which test products were infused in the rumen (day one) and samples were taken on the following 48 h.
Rumen fluid samples were taken at 0, 0.5, 1, 2, 3, 6, and 12 h post-infusion through a tube adapted to the rumen cannula.
Data set [4] concerns Holstein heifers. The experiment in a line: Nitrogen intake, excretion, digestibility and retention after ruminal infusion of urea sources. The format is in vivo. The procedure:
Each heifer was rumen-cannulated.
On the first and second day of experimental period, faeces were collected during 48 h. During this period wood shaves were withdrawn from the mattresses. On day 1, before the ruminal infusion of tested articles, a baseline sample was taken directly from the rectum of each animal. From the moment of ruminal incubation, total faeces were collected for 48 hours. During collection days, faeces were well homogenized, weighted, and a sub-sample (≈200 g) taken on the following hours of the day: 0800 (only for day 2) 1100, 1500 and 1900.

Data set [5] concerns Holstein heifers. The data set can be described thus: Apparent fiber digestibility after ruminal versus abomasal infusion of urea. It is filed as in vivo. The text has this: The experiment included a four-week adaptation period to a basal diet (in this case mimicking a winter tropical diet (winter tropical climate being an Aw climate) in addition to the distinct experimental periods (i.e. one experimental period per treatment regimen listed in Table 1), each lasting fourteen days.
Each heifer was rumen-cannulated. A tube was inserted into the abomasum via the rumen cannula to bypass the rumen.
The experiment consisted of two treatment groups subjected to different treatment regimens.
After the adaptation period, the heifers were exposed to the treatment regimens (i.e. consecutively, starting with treatment 1 and followed by treatment 2) as described in Table 1 (2 weeks per treatment regimen).
Heifers were fed low quality hay twice a day (08 h 30 and 16 h 30). The heifers were allowed to eat ad libitum during both feeding events.
An amount of one kilogram of compound feed (referred to as the ‘compound feed trial’), as a meal, was given in the morning (08 h 30) through the cannula (see Table 2). The details over the compositions of hay and compound feed (‘compound feed adaptation’ and ‘compound feed trial’) are presented in Table 3 below. Animals had free access to water troughs throughout the day.
All heifers were simultaneously infused in the rumen and the abomasum. This experimental design allowed each heifer to receive every treatment (consecutively), which provided 4 replicates per treatment. The two experimental periods described in Table 1 lasted 14 days each. For each individual treatment regimen, the fourteen-day period consisted of 8 days of adaptation, 4 days for sampling, and 2 days of rest without any infusions.
Whenever the treatment solution was infused in the rumen, a placebo solution (e.g. saline solution) was infused in the abomasum and whenever the treatment solution was infused in the abomasum, a placebo solution (e.g. water) was infused in the rumen. In the present case, it was necessary to infuse a saline solution in the abomasum (as opposed to water) in order to avoid problems related to osmotic pressure due to the small volume of the abomasum. This situation requires the use of a solution, which has an osmotic pressure similar to that of blood. A physiological saline solution fulfils this requirement. […] Therefore, infusion of water is suitable for the rumen.
Each heifer was equipped with two infusion lines via the cannula bung. Specifically, the first line delivered the solution straight into the rumen; the second line passed through the rumen into the omasum, using a rubber flange as anchor, delivering the pumped solution into the abomasum (Gressley et al. (2006)).
Infusate levels and infusion rates were checked 3 times per day (at 09:00 h;16:00 h and 21:00 h). Whenever necessary, manifold tubes with different inner diameter were replaced to adjust rate or level of solution, aiming to reach 10 L (or 5 L during the first two days of the period) infused continually in 24 h. The infusion rate was set at 3.5 mL/min (5 L/d) for the first two days of adaptation in each experimental period and 6.9 mL/min (10 L/d) for the remaining days.
Samples of compound feed and hay were taken from day 09 to 12 of each experimental period. After samples were collected, a portion was used to determine dried matter content (DM) at 60° C. 72 h and the rest was stored at −20° C. in a large bag labelled with the period number and trial code.

[6] abbreviates: ammonia infused into abomasum over 24 h (AA).
Setting [7] is: ammonia infused into rumen over 24 h (AR).
The mark [8] stands for this setting: during the 48 hours following N infusion into rumen.
[9] abbreviates: urea 127 g/day infused into the abomasum over 24 h (UA).
Setting [10] is: urea 127 g/day infused into the rumen once a day (UR).

Read-outs that look alike come from different tables or passages of the source.

As for `N` [ammonia], the “body weight at the end of the treatment” value in the data set with Holstein heifers [1] was “increased body weight”. Also, in the data set on Holstein heifers [2] (setting [6]), the “Feed intake, Crude Protein (Feed)” value was found to be 0.581 kg/day; the “Feed intake, Crude Protein (Total)” value worked out at 0.952 kg/day; the “Feed intake, Hay Dry Matter” value was 6.09 kg/day; the “Feed intake, Neutral detergent fiber” value was 4.38 kg/day. For the same molecule, in the data set on Holstein heifers [2] (setting [6]), the “Feed intake, Organic Matter” value came out at 6.58 kg/day and the “Feed intake, Total Dry Matter” value amounted to 6.97 kg/day. In the data set on Holstein heifers [2] (setting [7]), the “Feed intake, Crude Protein (Feed)” value worked out at 0.537 kg/day; the “Feed intake, Crude Protein (Total)” value worked out at 0.907 kg/day; the “Feed intake, Hay Dry Matter” value stood at 5.37 kg/day; the “Feed intake, Neutral detergent fiber” value was determined as 3.87 kg/day. Also, in the data set on Holstein heifers [2] (setting [7]), the “Feed intake, Organic Matter” value worked out at 5.90 kg/day and the “Feed intake, Total Dry Matter” value turned out to be 6.26 kg/day. In addition, in the data set on Holstein heifers [2] (ammonia into abomasum relative to ammonia in the rumen), the “feed intake of hay and total nutrient, in words” value is “increase in feed intake”. The “milk production at the end of the treatment” value in the data set with lactating heifers is “increased milk production”.

For urea, the “body weight at the end of the treatment” value in the data set with Holstein heifers [1] is listed as “increased body weight”. The “ruminal ammonia concentration over time, in words” value in the data set on Holstein heifers [3] is recorded as “higher”. Besides, in the data set on Holstein heifers [4] (((N intake − N excreted)/N intake) * 100), the N digestibility turned out to be 61.81%. In addition, the “Total N excretion” value in the data set with Holstein heifers [4] (Faecal N excretion + Urinary N excretion, 48 h) turned out to be 228.22 g. In the data set with Holstein heifers [4] (setting [8]), this molecule showed a N excretion faeces of 119.92 g and a N excretion urine of 108.30 g. Further, the “N Intake” value in the data set with Holstein heifers [4] (total N intake in 48 h including N infusion into rumen) is recorded as 307.58 g. Also, the “milk production at the end of the treatment” value in the data set with lactating heifers is recorded as “increased milk production”. In addition, in the data set with Holstein heifers [5] (setting [9]), the “Apparent fiber digestibility, Dry matter” value was 51.36%; the “Apparent fiber digestibility, Neutral detergent fiber” value is 48.27%; the “Apparent fiber digestibility, Organic matter” value came out at 52.79%. Further, in the data set with Holstein heifers [5] (setting [10]), the “Apparent fiber digestibility, Dry matter” value worked out at 49.35%; the “Apparent fiber digestibility, Neutral detergent fiber” value is on record as 43.75%; the “Apparent fiber digestibility, Organic matter” value turned out to be 50.18%. Also, the “apparent fiber digestibility, in words” value in the data set with Holstein heifers [5] (urea in the abomasum compared to urea in the rumen) is on record as “increased”.
